# Results as given in patent publication US20090023186A1, “USE OF VALPROIC ACID FOR ENHANCING PRODUCTION OF RECOMBINANT PROTEINS IN MAMMALIAN CELLS” (EXCELLGENE SA, priority 2007, published 2009).
# Test system: HEK293E cells
# Test: Transient IgG expression, batch titer by ELISA, VPA concentration series (Example 1)
# Assay type: cell-based, Human
# Settings: for Fold increase over control / Batch titer: IgG, day 5 after transfection; for Batch titer: 37° C.
# Experimental: 10 million suspension-adapted HEK293E cells were resuspended in 0.5 ml of Ex-Cell 293 HEK 293 serum-free medium with 4 mmol/l L-glutamine (Cat. No. 14571C-1000 M; Lot No. 6A0093; SAFC Biosciences, Lenexa, Kans., USA, “Ex-Cell” medium; note: “Ex-Cell” medium-as used herein-refers to a medium comprising 4 mmol/l L-glutamine) in a 50-ml filter tube each (TPP AG, Trasadingen, Switzerland; Cat. No. 87050, Lot 20050174). In a separate set, 10 million suspension-adapted CHO DG44 cells were resuspended in 0.5 ml of ProCHO5 serum-free medium with 4 mmol/[…] hypoxanthine and 0.194 g/l thymidine (BioWhittaker (Lonza), Belgium; Cat. No. BE12-[…]; Lot No. 7 MB0040; “ProCHO5” medium; note: “ProCHO5” medium-as used herein-refers to a medium comprising 4 mmol/[…] hypoxanthine and 0.194 g/l thymidine) in a 50-ml filter tube each (TPP AG, Trasadingen, Switzerland; Cat. No. 87050, Lot 20050174). Then 12.5 μg plasmid DNA at a concentration of 1 μg/μl was added in each tube with the following composition 50% (6.25 μg) p-LC (SEQ ID NO: 1) 50% (6.25 μg) p-HC (SEQ ID NO: 3). Plasmid p-LC comprises the genetic information for the production of the light chain of an IgG antibody, plasmid p-HC comprises the genetic information for the production of the heavy chain of an IgG antibody. The particular vector constructs used in the present invention can also be obtained from the inventors. The inventors can be contacted via e-mail at […]. Moreover, commercial services do exist that produce any desired nucleotide sequence even comprising several kilobase pairs including complete expression cassettes in plasmid backgrounds (e.g., Invitrogen, Carlsbad, USA; Geneart, Germany.) Thus, providing the genetic sequence information of the plasmids should enable one of ordinary skill in the art to order the plasmids of the present invention at one of the commercial services listed. After shortly mixing the DNA with the cells by gentle shaking, 25 μg of 25-kd linear polyethyleneimine (“PEI”; Polysciences, Eppelheim, Germany; [2]) were added at a concentration of 1 μg/μl to each of the tubes. After shortly mixing by gentle shaking, the filter tubes containing the cells together with the DNA and PEI were transferred into an orbital shaker (Kühner Shaker Cabinet ISF-4-W, “Kühner shaker”, Kühner AG, Birsfelden, Switzerland), and the cells were incubated for 4 hours at 37° C. in a 5% CO2 atmosphere under shaking at 180 rpm. After that time, 4.5 ml of Ex-Cell medium were added to each of the filter tubes containing HEK 293 cells and 4.5 ml of Pro-CHO5 were added to each of the filter tubes containing CHO DG44 cells. Then, valproic acid was added to each of the tubes at the corresponding final concentration. The cells then were returned into the Kühner shaker and incubated at 37° C. in a 5% CO2 atmosphere under shaking at 180 rpm. […] The ELISA was performed as published in prior art. In short, Goat anti-human kappa light chain IgG (Biosource) was used for coating the ELISA-plates, and with AP-conjugated goat anti-human gamma chain IgG (Biosource) the synthesized IgG1 was detected. NPP was used as a substrate for the alkaline phosphatase. Absorption was measured at 405 nm against 490 nm using a microplate reader (SPECTRAmaxTM340; Molecular Devices, Palo Alto, Calif., USA).
structure (smiles),measurement,setting,value
"CCCC(CCC)C(=O)O [VPA, valproic acid]",Fold increase over control,1.3 mmol/l final VPA,2.2 fold
same,Batch titer,1.3 mmol/l final VPA,33.0 ± 4.3 mg/L
same,Fold increase over control,2.5 mmol/l final VPA,4.1 fold
same,Batch titer,2.5 mmol/l final VPA,61.8 ± 5.7 mg/L
same,Fold increase over control,4 mmol/l final VPA,5.3 fold
same,Batch titer,4 mmol/l final VPA,79.5 ± 3.6 mg/L
same,Fold increase over control,5 mmol/l final VPA,4.3 fold
same,Batch titer,5 mmol/l final VPA,64.5 ± 6.5 mg/L
same,Fold increase over control,7.5 mmol/l final VPA,1.8 fold
same,Batch titer,7.5 mmol/l final VPA,27.0 ± 3.1 mg/L
same,Fold increase over control,11.3 mmol/l final VPA,0.9 fold
same,Batch titer,11.3 mmol/l final VPA,13.5 ± 2.1 mg/L
same,optimal final concentration,"for batch titer, HEK293E cells, day 5",around 4 mmol/l
